Source: PubChem BioAssay AID1259407 (Chemical Carcinogenesis Research Information System (CCRIS), 2018)
Activity calls are given as the source filed them. The rule behind the calls is not given here.

Test system: CCRIS mutagenicity, Ames/micronucleus/aberration tests
Experiment: CCRIS mutagenicity studies
Conditions: Test System: AMES SALMONELLA TYPHIMURIUM
[1] = Strain/Indicator: TA98, Metabolic Activation: HAMSTER, LIVER, S-9, AROCLOR 1254, Method: PREINCUBATION
[2] = Strain/Indicator: TA98, Metabolic Activation: NONE, Method: PREINCUBATION
[3] = Strain/Indicator: TA98, Metabolic Activation: RAT, LIVER, S-9, AROCLOR 1254, Method: PREINCUBATION
[4] = Strain/Indicator: TA100, Metabolic Activation: HAMSTER, LIVER, S-9, AROCLOR 1254, Method: PREINCUBATION
[5] = Strain/Indicator: TA100, Metabolic Activation: NONE, Method: PREINCUBATION
[6] = Strain/Indicator: TA100, Metabolic Activation: RAT, LIVER, S-9, AROCLOR 1254, Method: PREINCUBATION
[7] = Strain/Indicator: TA1535, Metabolic Activation: HAMSTER, LIVER, S-9, AROCLOR 1254, Method: PREINCUBATION
[8] = Strain/Indicator: TA1535, Metabolic Activation: NONE, Method: PREINCUBATION
[9] = Strain/Indicator: TA1535, Metabolic Activation: RAT, LIVER, S-9, AROCLOR 1254, Method: PREINCUBATION
[10] = Strain/Indicator: TA1537, Metabolic Activation: HAMSTER, LIVER, S-9, AROCLOR 1254, Method: PREINCUBATION
[11] = Strain/Indicator: TA1537, Metabolic Activation: NONE, Method: PREINCUBATION
[12] = Strain/Indicator: TA1537, Metabolic Activation: RAT, LIVER, S-9, AROCLOR 1254, Method: PREINCUBATION
[13] = Strain/Indicator: TA98, Metabolic Activation: NONE, Method: STANDARD PLATE
[14] = Strain/Indicator: TA98, Metabolic Activation: RAT, LIVER, S-9, AROCLOR 1254, Method: STANDARD PLATE
[15] = Strain/Indicator: TA100, Metabolic Activation: NONE, Method: STANDARD PLATE
[16] = Strain/Indicator: TA100, Metabolic Activation: RAT, LIVER, S-9, AROCLOR 1254, Method: STANDARD PLATE

| SMILES | mutagenic call [1] | mutagenic call [2] | mutagenic call [3] | mutagenic call [4] | mutagenic call [5] | mutagenic call [6] | mutagenic call [7] | mutagenic call [8] | mutagenic call [9] | mutagenic call [10] | mutagenic call [11] | mutagenic call [12] | mutagenic call [13] | mutagenic call [14] | mutagenic call [15] | mutagenic call [16] | also measured |
| --- | --- | --- | --- | --- | --- | --- | --- | --- | --- | --- | --- | --- | --- | --- | --- | --- | --- |
| CCn1c2ccccc2c2cc(N)ccc21 | active; positive | inactive; negative | active; positive | active; positive | inactive; negative | active; positive | inactive; negative | inactive; negative | inactive; negative | active; positive | inactive; negative | active; positive |  |  |  |  |  |
| C1CNCCN1 | inactive; negative | inactive; negative | inactive; negative | inactive; negative | inactive; negative | inactive; negative | inactive; negative | inactive; negative | inactive; negative | inactive; negative | inactive; negative | inactive; negative |  |  |  |  | mutagenic call (Strain/Indicator: TA98, Metabolic Activation: RAT, LIVER, S-9, PCB, Method: PREINCUBATION): inactive; negative; mutagenic call (Strain/Indicator: TA100, Metabolic Activation: RAT, LIVER, S-9, PCB, Method: PREINCUBATION): inactive; negative |
| COc1cc([N+](=O)[O-])ccc1N |  |  |  |  |  |  |  |  |  |  |  |  | active; positive | active; positive |  |  |  |
| CS(=O)(=O)n1ncc(Cl)c(Cl)c1=O |  |  |  |  |  |  |  |  |  |  |  |  | inactive; negative | inactive; negative | active; positive | active; positive | mutagenic call (Strain/Indicator: TA1535, Metabolic Activation: NONE, Method: STANDARD PLATE): inactive; negative; mutagenic call (Strain/Indicator: TA1535, Metabolic Activation: RAT, LIVER, S-9, AROCLOR 1254, Method: STANDARD PLATE): inactive; negative; mutagenic call (Strain/Indicator: TA1537, Metabolic Activation: NONE, Method: STANDARD PLATE): inactive; negative; mutagenic call (Strain/Indicator: TA1537, Metabolic Activation: RAT, LIVER, S-9, AROCLOR 1254, Method: STANDARD PLATE): inactive; negative |
| COc1cc2c(CCNC(C)=O)c[nH]c2cc1O |  |  |  |  |  |  |  |  |  |  |  |  | inactive; negative | inactive; negative | inactive; negative | inactive; negative | mutagenic call (Strain/Indicator: TA97, Metabolic Activation: NONE, Method: STANDARD PLATE): inactive; negative; mutagenic call (Strain/Indicator: TA97, Metabolic Activation: RAT, LIVER, S-9, AROCLOR 1254, Method: STANDARD PLATE): inactive; negative |
